Results taken from patent US20120226036A1, “S[…] COMPOUND” (UBE INDUSTRIES, LTD., priority 2009, published 2012).

Biological target: T1, human EP2 receptor (Homo sapiens, UniProt P43116)
T1 construct: host or cells: HEK293
Test: Measurement of EP2 receptor binding action ([3H]prostaglandin E2 displacement, membrane fraction of HEK293 cells)
Conditions: tested as active form (R1 = hydroxy group) of the example compound; [3H]prostaglandin E2 10 nM, 60 minutes at 30° C.
Experimental: Measurement of EP2 receptor binding action was carried out in compliance with the method of Abramovitz et al. (Biochimica et Biophysica Acta, 1483, 285 (2000)). A test compound (a compound wherein R^1 in the compound represented by the formula (I) of the present invention is a hydroxy group) dissolved in dimethylsulfoxide and [^3H]prostaglandin E2 (NET-428, available from PerkinElmer) (final concentration: 10 nM) were added to a buffer solution (10 mM MES-KOH (pH 6.0), 10 mM MgCl2, 1 mM EDTA) in which was suspended 10 μg of a membrane fraction of HEK293 cells expressing human EP2 receptor (ES-562-M, available from Euroscreen) followed by incubating for 60 minutes at 30° C. The membrane fraction was recovered on glass fiber filter paper (GF/B, available from Whatmann) using a cell harvester (M30R, Brandel), and after washing with a buffer solution (10 mM MES-KOH (pH 6.0), 10 mM MgCl2), radioactivity was measured with a liquid scintillation analyzer (2000CA, Packard).
Ki=IC50/(1+([^3H]prostaglandin E2 concentration/Kd))
The dissociation constant (Kd value) was calculated by Scatchard analysis.

T1 sequence (P43116 whole entry): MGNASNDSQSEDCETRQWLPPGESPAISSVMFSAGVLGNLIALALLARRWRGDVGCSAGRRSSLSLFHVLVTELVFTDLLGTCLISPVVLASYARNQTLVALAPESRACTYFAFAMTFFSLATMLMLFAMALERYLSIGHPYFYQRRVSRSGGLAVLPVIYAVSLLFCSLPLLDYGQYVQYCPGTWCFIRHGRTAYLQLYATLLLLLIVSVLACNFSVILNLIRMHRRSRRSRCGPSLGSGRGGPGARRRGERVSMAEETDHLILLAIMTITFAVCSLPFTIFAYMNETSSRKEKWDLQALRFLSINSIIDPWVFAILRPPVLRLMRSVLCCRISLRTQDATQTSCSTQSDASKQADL

Substance	Ki
(5-Phenylpentyl)(6-{(pyridin-2-ylsulfonyl)[4-(thiazol-2-yl)benzyl]aminomethyl}-pyridin-2-ylamino)acetate [Example 1]	1.9 nM
(2,2,2-Trifluoroethyl)(6-{[4-(pyrazol-1-yl)benzyl](pyridin-3-ylsulfonyl)aminomethyl}-pyridin-2-ylamino)acetate [Example 11]	13 nM
